Experimental data: patent publication US10640748B2, “Oligodendroglial cell culturing methods and in methods for treating neurodegenerative disorders by using thyroid hormones or analogues” (NeuOrphan Pty Ltd, priority 2014, dated 2020)
“Also recorded” adds a separate entry of the source.

Legend:
[1] = tested on: Pre-OLs from Nkx2.1-GFP+ sorted cultures at stage VI; assay: Cell cycle analysis with BrdU (flow cytometry); assay type: cell-based, human
Description: BrdU cell cycle analysis was performed according to the manufacturer's protocol (BD Biosciences). For a detailed protocol, see Supplemental Experimental Procedures.
Pre-OLs from Nkx2.1-GFP+ sorted cultures at stage VI day 7 and day 21 were pulsed with BrdU for 1 hour. Cells were then treated with DNAse I for 45 minutes then collected using accutase (Life Technologies). Collected cells were fixed and permeabilized and stained with anti-BrdU conjugated with APC for 30 minutes at 4° C. Cells were washed and stained with 7-AAD. Cells were then analyzed on LSR-Fortessa (BD Biosciences). Unpulsed cells and pulsed cells without anti-BrdU staining served as a negative control.

[2] = tested on: Nkx2.1-GFP+ sorted cells at stage VI; assay: qRT-PCR gene expression in Nkx2.1-GFP+ sorted cells at stage VI treated with T3, DITPA or T3+DITPA; assay type: cell-based, human
Description: RNA was isolated from cells by using RNeasy Mini Kit (Qiagen) according to the manufacturer's instruction and treated with DNase-I to remove genomic DNA. The concentrations of total RNA were measured by Nanodrop ND-1000 spectrophotometer v3.7 (Thermo Specific) and complementary DNA (cDNA) was synthesized from 1 μg of total RNA using High-Capacity cDNA Reverse Transcription Kit (Applied Biosystems) according to the manufacturer's instructions. Real-Time Quantitative Reverse Transcription Polymerase Chain Reaction (qRT-PCR) was performed with 5-20 ng of cDNA template, 2× Taqman Gene expression master mix and 20× Taqman probes (Life technologies) on ABI Prism 7900HT Sequence detection system (Applied Biosystems). Gapdh served as an endogenous standard control. The qRT-PCR thermo-cycling reaction was 1 cycle at 50° C. for 2 minutes, 1 cycle at 95° C. for 10 minutes and 40 cycles of 95° C. for 15 seconds, then 60° C. for 1 minute. The threshold cycle (CT) value, which represents the cycle at which the first PCR product is detected, was measured in triplicate and normalized against the endogenous control, GAPDH, to determine the ΔCT value. Then the ΔCT values of GFP-positive cells were then standardized against the ΔCT values of undifferentiated hESCs, derived as relative mRNA expression (ΔΔCT).
Bar graphs illustrating the qRT-PCR analyses in FIG. 2, 3, S1-3 representing the log2 of the average fold-change in gene expression compared directly to the undifferentiated Stage I hESC or T3-treated cells at day 7 in FIG. 5 and S5.

[3] = tested on: Pre-OLs from Nkx2.1-GFP+ sorted cultures at stage VI, day 21; assay: Pharmacological blockade of MCT8 with Bosutinib, DAPI+ dead cells by flow cytometry; assay type: cell-based, human; settings: co-administration of 10 ng/mL DITPA with Bosutinib, 48 hours
Description: Pre-OLs from Nkx2.1-GFP+ sorted cultures at stage VI, day 21 were treated with the pharmacological inhibitor of MCT8, bosutinib (LC Laboratories, B-1788, reconstituted in dimethyl sulfoxide, [DMSO]) at different concentrations (1 ng/mL, 10 ng/mL and 100 ng/mL) with co-administration of 10 ng/mL DITPA. An MTT assay and flow cytometry were then performed on the cells stained for DAPI after 48 hours of treatment, to analyze DAPI+ dead cells.

[4] = tested on: rat RGCs and slc16a2 down-regulated OLs from Nkx2.1-GFP+ sorted cells; assay: Co-culture myelination assay with slc16a2 down-regulated OLs; assay type: cell-based, rat; human; settings: slc16a2 down-regulated OLs co-cultured with rat RGCs for 7 days
Description: Retinae were dissected from P6 Sprague-Dawley rat pups (AEC #1121/2011/M). RGCs were purified according to the published immunopanning protocol (Deliyanti and Wilkinson-Berka, 2015; Watkins et al., 2008). Details of the RGC preparation are described in Supplemental Experimental Procedure. The RGC growth medium was changed every third day and cultures were maintained for 9 days. Pre-OLs from Nkx2.1-GFP+ cells at stage VI day 10, were FACS sorted according to O4 antibody labeling. O4+ sorted cells were then co-cultured with RGCs at a density of 20,000/well under 3 different conditions: T3 with 0.01% ethanol, 10 ng/mL DITPA, and 40 ng/mL T3 with DITPA in myelination medium (see Supplemental Experimental Procedure). […]
For quantification of myelination in vitro following knockdown of slc16a2, at least nine fields (×20 objective) were randomly selected and captured from each coverslip with a confocal microscope (Nikon A1 inverted). A myelination index (%) by mCherry+ cells (i.e. axons myelinated by mCherry+ cells) was calculated by: the number of mCherry+/MBP+ membrane, ensheathing the NF200+ axons/the total number of NF200+ axons. Furthermore, the viable ensheathing mCherry+/MBP+ OLs and mature mCherry+ OLs according to their morphology with multiple processes and membranous sheaths were counted and their % calculated.

AHDS patients = settings: cited from earlier work
slc16a2-/- zebrafish = settings: cited from earlier work
[5] = cited from earlier work
[6] = compared to T3 treated cultures
[7] = differentiating cultures treated with DITPA

## O=C(O)CCc1cc(I)c(Oc2ccc(O)cc2)c(I)c1 [DITPA, 3,5-Diiodothyropropionic acid]
[1]; compared with T3
  cell cycle exit: potentiates cell cycle exit faster than T3
[1]; day 7, compared with T3 alone
  numbers of cells in S phase: significant reduction
[2]; [6]
  cdkn1b (p27) expression: up-regulated
  tp53 (p53) expression: up-regulated
[2]; compared with T3
  OL differentiation: promotes OL differentiation
[2]; compared with T3 treatment
  dio2 expression: no significant differences
  dio3 expression: no significant differences
  thrb expression: no significant differences
[2]; day 7, compared with T3
  slc16a2 (MCT8) expression: significant up-regulation
  slc16a10 (MCT10) expression: significant up-regulation
[2]; day 21 of treatment, versus T3 alone
  plp1 expression: substantial up-regulation
[2]; [7]
  mbp expression: up-regulation
  myt1 expression: up-regulation
  plp1 expression: up-regulation
[2]; following DITPA treatment
  olig1 expression: up-regulated
  olig2 expression: up-regulated
  sox10 expression: up-regulated
  up-regulation of slc16a10: ~14 fold
[2]; upon DITPA treatment
  bmp7 expression: down-regulation
  frzb expression (WNT antagonist): up-regulation
  jun expression: down-regulation
  sfrp1 expression (WNT antagonist): up-regulation
  sfrp2 expression (WNT antagonist): up-regulation
  tgfb3 expression: down-regulation
  tnfrsf2 (encodes DR6) expression: almost negligible up-regulation
  wnt5a expression: down-regulation
[3]
  cell death (DAPI+ dead cells) under Bosutinib MCT8 blockade: significant reduction in cell death; also recorded: DITPA treatment of differentiating OPCs overcomes the cell death initiated by the
[4]
  mCherry+/MBP+ myelinating OLs and mCherry+/MBP+ myelin segments: found
AHDS patients
  hypermetabolism: reduce
  peripheral hyperthyroidism: normalize
slc16a2-/- zebrafish
  locomotor behavioral outcomes: restored
  myelin deficiencies: restored
[5]
  solubility in water and aqueous solutions: sparingly soluble
